Experimental data taken from ChEMBL document CHEMBL1125853, “An acyliminium ion route to and Anti phe-gly dipeptide mimetics” (Bioorg Med Chem Lett, 1991).

Biological target: Angiotensin-converting enzyme (Homo sapiens, UniProt P12821)
Assay: Inhibitory constant angiotensin converting enzyme

Sequence of Angiotensin-converting enzyme (P12821 whole entry): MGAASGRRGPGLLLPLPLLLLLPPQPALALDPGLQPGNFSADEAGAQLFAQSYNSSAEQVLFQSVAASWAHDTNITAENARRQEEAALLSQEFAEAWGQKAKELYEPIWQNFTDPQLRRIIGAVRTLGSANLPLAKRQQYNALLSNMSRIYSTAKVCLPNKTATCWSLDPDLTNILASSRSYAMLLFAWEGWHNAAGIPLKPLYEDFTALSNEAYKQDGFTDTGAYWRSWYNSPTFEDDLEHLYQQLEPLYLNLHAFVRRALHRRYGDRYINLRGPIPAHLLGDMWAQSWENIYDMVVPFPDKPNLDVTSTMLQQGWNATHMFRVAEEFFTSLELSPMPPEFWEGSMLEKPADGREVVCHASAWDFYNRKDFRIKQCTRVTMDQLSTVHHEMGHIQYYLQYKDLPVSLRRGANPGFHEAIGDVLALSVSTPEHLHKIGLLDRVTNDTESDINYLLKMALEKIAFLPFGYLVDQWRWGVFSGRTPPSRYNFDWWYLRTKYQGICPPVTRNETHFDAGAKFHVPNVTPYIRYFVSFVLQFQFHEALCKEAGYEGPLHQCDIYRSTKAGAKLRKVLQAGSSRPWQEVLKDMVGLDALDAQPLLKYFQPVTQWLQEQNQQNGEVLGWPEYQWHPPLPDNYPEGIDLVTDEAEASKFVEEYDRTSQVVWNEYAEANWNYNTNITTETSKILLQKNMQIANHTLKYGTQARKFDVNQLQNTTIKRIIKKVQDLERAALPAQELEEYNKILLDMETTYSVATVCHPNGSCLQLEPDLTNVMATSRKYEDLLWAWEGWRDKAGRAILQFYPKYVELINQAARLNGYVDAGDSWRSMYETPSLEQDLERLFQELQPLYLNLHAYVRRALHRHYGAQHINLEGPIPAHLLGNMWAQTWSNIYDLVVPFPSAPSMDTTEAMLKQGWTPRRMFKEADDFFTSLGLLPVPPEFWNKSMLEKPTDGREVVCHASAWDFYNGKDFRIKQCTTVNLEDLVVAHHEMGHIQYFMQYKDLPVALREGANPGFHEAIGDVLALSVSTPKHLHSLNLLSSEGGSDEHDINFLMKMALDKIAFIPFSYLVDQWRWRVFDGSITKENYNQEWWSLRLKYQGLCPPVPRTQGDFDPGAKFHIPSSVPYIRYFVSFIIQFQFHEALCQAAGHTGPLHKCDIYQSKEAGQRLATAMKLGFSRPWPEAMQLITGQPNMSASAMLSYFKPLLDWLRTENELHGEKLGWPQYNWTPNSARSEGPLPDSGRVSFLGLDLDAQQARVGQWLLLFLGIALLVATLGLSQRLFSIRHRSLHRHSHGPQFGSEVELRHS

O=C(O)CN1Cc2ccccc2CC(N[C@H](CCc2ccccc2)C(=O)O)C1=O (stereo partly specified)
Ki: 10 nM
